The source of these data is patent US12240849B2, “Nitrogen-containing spiro derivative as RET inhibitor” (GUANGZHOU BAIYUNSHAN PHARMACEUTICAL HOLDINGS CO., LTD. …, priority 2019, dated 2025).

The nature of data set [1]: Body weight of mice in Ba/F3 KIF5B-RET xenograft experiment. The class given is in vivo, NPSG mice. To be noted: Ba/F3 KIF5B-RET model, in g (unit assumed). The method, then:
(§1) 4) After inoculation, the volume and weight of tumors were measured once a week. When the average tumor volume reached 104 mm^3, mice were randomly grouped according to the volume and weight of tumors with 6 mice in each group. The administration was started immediately after the grouping. The start date of the administration was recorded as day 0.
(§2) 5) After administration was started, the body weight and tumor volume of the mice were measured respectively on the day 0, day 3, day 6, and day 10.

Data set [2] deals with Ba/F3 KIF5B-RET tumor cell xenograft. The data set is described as follows: Efficacy in engineered cell line Ba/F3 KIF5B-RET xenograft model. The class given is in vivo, NPSG mice. To be noted: for TGI: TGI = 1-ΔT/ΔC; for Tumor Volume on Day 10 / Tumor Volume on Day 0: average ± standard error.
Description: To verify efficacy of drugs to be tested alone on the engineered cell line Ba/F3 KIF5B-RET xenograft model of NPSG mice.
1) Ba/F3 KIF5B-RET cells were resuscitated and cultured in vitro to obtain 4×10^7 cells.
2) Sixty 6-8 week old female NPSG mice were adaptively fed for one week and weighed.
3) The Ba/F3 KIF5B-RET cells were subcutaneously inoculated on right scapula of mice according to the inoculation conditions obtained in the pre-test (see Table 7) to establish the Ba/F3 KIF5B-RET tumor cell xenograft model of NPSG mice.
as §1, §2
6) For the experiment of two groups, a T-Test analysis method was used. For a comparison of three or more groups, One-Way ANOVA was used for analysis. For comparing potential synergistic effects, Two-Way ANOVA was used for analysis. All data were analyzed by using SPSS 17.0. A p value less than 0.05 was considered to be a significant difference, and a p value less than 0.01 was considered to be a very significant difference.

Data set [3] in a line: Body weight of mice in Ba/F3 KIF5B-RET-V804L xenograft experiment. The format is in vivo, NPSG mice. To be noted: 10 mg/kg p.o. BID, Ba/F3 KIF5B-RET-V804L model, in g (unit assumed). As to the method: (§3) 4) After inoculation, the volume and weight of tumors were measured once a week. When the average tumor volume reached 124.5 mm^3, mice with the tumor volume between 82.9 mm^3 and 145.4 mm^3 were selected and randomly grouped according to the volume and weight of tumors with 6 mice in each group. The administration was started immediately after the grouping. The start date of the administration was recorded as day 0.
(§4) 5) After the administration was started, the mice were continuously administrated for 9 days, and the body weight and tumor volume of the mice were measured on day 3, day 6, and day 9.

Data set [4] concerns Ba/F3 KIF5B-RET-V804L tumor cell xenograft. The data set is described as follows: Efficacy in Ba/F3 KIF5B-RET-V804L tumor cell xenograft model. The class given is in vivo, NPSG mice.
Description: 1) Ba/F3 KIF5B-RET-V804L cells were resuscitated and cultured in vitro to obtain 5×10^7 cells.
2) Forty-five 6-8 week old female mice were adaptively fed for 1 week and weighed.
3) Ba/F3 KIF5B-RET-V804L tumor cells were subcutaneously inoculated into the right scapula position of the mice so as to establish the engineered cell line Ba/F3 KIF5B3-RET-V804L tumor cell xenograft model. Inoculation conditions were as follows: (see Table 3)
as §3, §4
6) Data statistics were analyzed by one-way ANOVA. Variance homogeneity difference of data was firstly detected. If there was no difference in the variance homogeneity, an LSD method was used for analysis; and if there was a difference in the variance homogeneity, Dunnett's T3 was selected for data analysis. All data were analyzed by using SPSS 17.0. A p value less than 0.05 was considered a significant difference.

The nature of data set [5]: Pharmacokinetic evaluation in mice. The format is in vivo, CD-1 mice (male). To be noted: male, mouse, plasma, CD-1 mice; for bioavailability: read-out: Bioavailability F; for AUC: read-out: Integrated Concentration AUC; for clearance: read-out: Clearance Rate; for half-life: read-out: Half-life T1/2 (converted). The source says:
Experiment objective: to test the pharmacokinetic of compound in mice
Experiment material: CD-1 mice (male)
Experiment operations: the pharmacokinetic characteristics of rodents after intravenous injection and oral administration of the compounds were obtained by using a standard scheme. In the experiment, candidate compounds were formulated into clear solutions, and mice were administrated by a single intravenous injection and oral administration. The solvent of the intravenous injection and oral administration was 10% PEG400 (polyethylene glycol 400)+90%(10% hydroxypropyl-β-cyclodextrin). The whole blood samples were collected within 24 hours. All the blood samples were added respectively into labeled plastic centrifuge tubes in which 0.5 M K2-EDTA anticoagulants were pre-added. The blood samples were collected, and centrifuged at 3,000 g for 10 min at 4° C. The supernatant plasma was collected by absorbing and quickly placed in dry ice to keep at −20° C. or lower. Blood concentrations were quantitatively analyzed by using an LC-MS/MS analysis method, and pharmacokinetic parameters, such as peak concentration, peak time, clearance rate, half-life, area under drug concentration-time curve, bioavailability, etc. were calculated.

For a further data set, the target named is T1, human wild-type RET (Homo sapiens, UniProt P07949).
T1 construct: purchased Reaction Biology Corp
The data set is described as follows: 33P isotope-labeled kinase activity test, wild-type RET. The format is biochemical. To be noted: 33P-ATP at Km concentration. The method, then: (§5) ^33P isotope-labeled kinase activity test (Reaction Biology Corp) was used to determine IC50 value so as to evaluate an inhibitory ability of a test compound on human wild-type, V804M and V804L mutant RET.
(§6) Buffer solution condition: 20 mM 4-(2-hydroxyethyl)piperazine-1-ethanesulfonic acid (Hepes) (pH 7.5), 10 mM MgCl2, 1 mM 1,2-bis[2-[bis(carboxymethyl)amino]ethoxy]ethane (EGTA), 0.02% polyoxyethylene lauryl ether (Brij35), 0.02 mg/mL bovine serum albumin (BSA), 0.1 mM of Na3VO4, 2 mM dithiothreitol (DTT) and 1% DMSO.
(§7) Compound treatment: the compound to be tested was dissolved in 100% DMSO, and then the obtained solution was continuously diluted with DMSO by using Integra Viaflo Assist until a specific concentration was obtained.
(§8) Test procedures: a substrate was dissolved in the newly prepared buffer solution, a kinase to be tested was added therein, and the obtained solution was gently and evenly mixed. DMSO solution in which a compound to be test was dissolved was added in the above evenly mixed reaction solution by using an acoustic technology (Echo 550), and then incubated for 20 minutes at room temperature. […] Kinase activity data was expressed by comparing the kinase activity of the compound to be tested with the kinase activity of a blank group (containing only DMSO). The IC50 value was obtained by curve fitting with Prism4 software (GraphPad).

In a further data set the target is T2, V804L mutant RET (Homo sapiens, UniProt P07949, V804L).
T2 construct: purchased Reaction Biology Corp
The data set is described as follows: 33P isotope-labeled kinase activity test, V804L mutant RET. The class given is biochemical. To be noted: 33P-ATP at Km concentration. As to the method:
as §5, §6, §7, §8

A further data set has as its target T3, V804M mutant RET (Homo sapiens, UniProt P07949, V804M).
T3 construct: purchased Reaction Biology Corp
The data set is described as follows: 33P isotope-labeled kinase activity test, V804M mutant RET. The class given is biochemical. To be noted: 33P-ATP at Km concentration. As to the method:
as §5, §6, §7, §8

The mark [6] stands for this setting: 10 mg/kg, oral administration 10 mpk.
The mark [7] stands for this setting: iv, 2 mg/kg, injection administration 2 mpk.

Like-named read-outs stand apart in the source and are kept apart here.

T1 sequence (P07949 29-1114): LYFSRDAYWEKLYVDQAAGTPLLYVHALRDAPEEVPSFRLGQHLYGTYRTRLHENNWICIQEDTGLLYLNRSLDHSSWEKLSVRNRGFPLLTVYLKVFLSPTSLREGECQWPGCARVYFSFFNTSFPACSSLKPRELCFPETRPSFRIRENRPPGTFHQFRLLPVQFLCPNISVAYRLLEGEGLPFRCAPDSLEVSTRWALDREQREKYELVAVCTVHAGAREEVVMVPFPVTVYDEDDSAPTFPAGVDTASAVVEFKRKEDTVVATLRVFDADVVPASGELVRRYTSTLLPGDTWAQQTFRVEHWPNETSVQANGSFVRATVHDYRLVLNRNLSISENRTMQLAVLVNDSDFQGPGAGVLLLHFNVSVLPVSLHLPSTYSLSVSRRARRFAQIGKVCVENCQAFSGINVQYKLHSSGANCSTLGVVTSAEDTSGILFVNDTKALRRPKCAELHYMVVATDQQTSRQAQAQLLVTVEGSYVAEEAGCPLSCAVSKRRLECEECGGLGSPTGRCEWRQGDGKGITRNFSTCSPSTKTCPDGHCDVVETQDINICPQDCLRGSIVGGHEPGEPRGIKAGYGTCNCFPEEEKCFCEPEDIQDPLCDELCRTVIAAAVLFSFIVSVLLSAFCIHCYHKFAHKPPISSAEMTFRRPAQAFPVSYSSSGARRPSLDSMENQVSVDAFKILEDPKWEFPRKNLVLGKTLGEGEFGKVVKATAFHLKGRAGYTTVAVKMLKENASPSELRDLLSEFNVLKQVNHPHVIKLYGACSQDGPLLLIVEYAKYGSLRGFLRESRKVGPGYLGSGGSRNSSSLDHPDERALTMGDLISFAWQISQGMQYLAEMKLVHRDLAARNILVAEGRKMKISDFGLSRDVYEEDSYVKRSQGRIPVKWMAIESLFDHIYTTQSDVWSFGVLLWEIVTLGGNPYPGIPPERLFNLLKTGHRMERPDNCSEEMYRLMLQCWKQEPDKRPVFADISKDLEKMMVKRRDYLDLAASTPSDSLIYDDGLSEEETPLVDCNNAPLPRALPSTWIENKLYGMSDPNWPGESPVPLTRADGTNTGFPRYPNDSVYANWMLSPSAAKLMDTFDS
T2 sequence (P07949 29-1114 V804L): as the sequence (P07949 29-1114) above, with V776L counted along it
T3 sequence (P07949 29-1114 V804M): as the sequence (P07949 29-1114) above, with V776M counted along it

The term bioavailability denotes dose-corrected exposure relative to a reference, in per cent. By clearance is commonly meant the volume of plasma or blood freed of the substance per unit of time. Take `Cc1cc(Nc2cc(C)nc(C3CCC4(CC3)OCCN(C(C)c3ccc(-n5cc(F)cn5)nc3)C4=O)n2)[nH]n1` (single isomer, unassigned) [Compound 014]: the Body weight in data set [1] (day 0, 10 mg/kg p.o. BID) was 18 ± 0.57; in data set [1] (day 3, 10 mg/kg p.o. BID), 18.5 ± 0.47; in data set [1] (day 6, 10 mg/kg p.o. BID), 18.5 ± 0.75; in data set [1] (day 10, 10 mg/kg p.o. BID), 18.6 ± 0.62; in data set [3] (day 0) it was 19.5 ± 0.53; in data set [3] (day 3) it was 20.3 ± 0.72. Further, the Body weight in data set [3] (day 6) is 20.5 ± 0.72; in data set [3] (day 9), 20.3 ± 0.84. Moreover, the ΔVAC in data set [2] (10 mg/kg p.o. BID Day 0-Day 10) was 1%; in data set [4] (10 mg/kg p.o. BID Day 0-Day 9), −6%. Moreover, the bioavailability in data set [5] (setting [6]) worked out at 53.7%. Besides, the values for the AUC in data set [5] (setting [6]) and in data set [5] (setting [7]) were 49.6 µM·h and 16.4 µM·h, respectively. The clearance in data set [5] (setting [7]) stood at 1.65 mL/min/kg. The half-life in data set [5] (setting [7]) was 2.53 h.

What is called IC50 is the midpoint of a concentration-inhibition curve. The low end stands for higher potency, the high end for lower potency. Consider `Cc1cc(Nc2cc(C)nc(N3CCC4(CC3)CCN(C(C)c3ccc(-n5cc(F)cn5)nc3)C4)n2)[nH]n1` (stereo not drawn) [Compound 003-h], for which the concentration for half-maximal inhibition (IC50) against human wild-type RET turned out to be 73.9 nM.

As for `Cc1cc(Nc2cc(C)[nH]n2)nc(N2CCC3(CC2)OCCN(C(C)c2ccc(-n4cc(F)cn4)nc2)C3=O)n1` (stereo not drawn) [Compound 018], the Body weight was determined as 17.7 ± 0.47 in data set [1] (day 0, 10 mg/kg p.o. BID); 17.6 ± 0.58 in data set [1] (day 0, 20 mg/kg p.o. BID); 18.2 ± 0.51 in data set [1] (day 3, 10 mg/kg p.o. BID); 18.1 ± 0.56 in data set [1] (day 3, 20 mg/kg p.o. BID); 18.5 ± 0.57 in data set [1] (day 6, 10 mg/kg p.o. BID); 18.3 ± 0.53 in data set [1] (day 6, 20 mg/kg p.o. BID). Further, the Body weight is recorded as 17.7 ± 0.86 in data set [1] (day 10, 10 mg/kg p.o. BID); 18.5 ± 0.63 in data set [1] (day 10, 20 mg/kg p.o. BID); 18.6 ± 0.49 in data set [3] (day 0); 18.8 ± 0.48 in data set [3] (day 3); 18.6 ± 0.87 in data set [3] (day 6); 19 ± 0.64 in data set [3] (day 9). The ΔVAC in data set [2] (10 mg/kg p.o. BID Day 0-Day 10) was 10%; in data set [2] (20 mg/kg p.o. BID Day 0-Day 10), −7%; in data set [4] (10 mg/kg p.o. BID Day 0-Day 9), −7%. For the same compound, the TGI in data set [2] (10 mg/kg p.o. BID Day 0-Day 10) came out at 90%; in data set [2] (20 mg/kg p.o. BID Day 0-Day 10), 107%; in data set [4] (10 mg/kg p.o. BID Day 0-Day 9, TGI = 1-ΔT/ΔC), 107%. For the same compound, the entries for the “Tumor Volume on Day 10” value in data set [2] (10 mg/kg p.o. BID Day 0-Day 10) and in data set [2] (20 mg/kg p.o. BID Day 0-Day 10) were 205.1 ± 29.87 mm^3 and 32.8 ± 6.81 mm^3, respectively. The “Tumor Volume on Day 0” value in data set [2] (10 mg/kg p.o. BID) is reported as 106.3 ± 7.14 mm^3; in data set [2] (20 mg/kg p.o. BID), 102.2 ± 7.09 mm^3; in data set [4] (10 mg/kg p.o. BID, average ± standard error), 125 ± 3.96 mm^3. Besides, the IC50 against human wild-type RET was 1.29 nM; at V804L mutant RET, 1.23 nM; against V804M mutant RET, 1.97 nM. In data set [4] (10 mg/kg p.o. BID Day 0-Day 9, average ± standard error), the “Tumor Volume on Day 9” value is 75.5 ± 7.11 mm^3. The bioavailability in data set [5] (setting [6]) was determined as 59.7%. The AUC in data set [5] (setting [6]) was determined as 27.7 µM·h; in data set [5] (setting [7]), 9.3 µM·h. Moreover, in data set [5] (setting [7]), the clearance amounted to 6.55 mL/min/kg. The half-life in data set [5] (setting [7]) is 2.56 h.
